Measured values reported in patent EP3046573B1, “AMYLIN ANALOGUES” (Zealand Pharma A/S, priority 2013, dated 2015).
pEC50: −log10 of the molar value. Like-named read-outs stand apart in the source and are kept apart here. Numbered stars: 1 amine (or outer) side, 2 acyl side, 3 side chain; on linkers, the order of the positions; unused ones are H or OH. Bridge positions count the residues as written; N and C are the ends. Square brackets hold non-standard residues; d marks the D form. Peptide text beside a SMILES is read from it. * marks the point of attachment. C20 diacid = O=C(O)CCCCCCCCCCCCCCCCCCC(=O)*; γGlu = O=C(O)[C@H](CCC(=O)[*:2])N[*:1]; NMeY = CN[C@@H](Cc1ccc(O)cc1)C(=O)O; NMeI = CC[C@H](C)[C@H](NC)C(=O)O; Orn = NCCC[C@H](N)C(=O)O; Dab = NCC[C@H](N)C(=O)O; Sar = CNCC(=O)O

Key:
[1] = target: T1, human calcitonin receptor (hCTR2) (Homo sapiens, UniProt P30988); experiment: hCTR2 assay: induction of cAMP (AlphaScreen cAMP Assay kit) in COS7 cells expressing hCTR2; format: cell-based
T1 construct: expressed in transfected cells
T1 sequence (P30988 25-474): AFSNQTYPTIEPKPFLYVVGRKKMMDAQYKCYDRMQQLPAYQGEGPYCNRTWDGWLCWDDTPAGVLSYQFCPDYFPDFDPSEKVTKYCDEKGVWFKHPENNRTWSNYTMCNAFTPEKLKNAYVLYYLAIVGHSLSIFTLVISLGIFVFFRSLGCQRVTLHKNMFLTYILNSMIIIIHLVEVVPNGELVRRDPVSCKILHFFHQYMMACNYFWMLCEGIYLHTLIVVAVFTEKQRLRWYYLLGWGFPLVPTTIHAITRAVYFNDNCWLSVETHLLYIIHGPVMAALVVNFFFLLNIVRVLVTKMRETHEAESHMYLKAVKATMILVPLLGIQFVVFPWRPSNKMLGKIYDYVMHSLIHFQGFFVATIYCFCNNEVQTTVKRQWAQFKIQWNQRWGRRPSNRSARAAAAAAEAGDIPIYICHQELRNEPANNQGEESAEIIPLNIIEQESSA
Summary of the method: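 COS7 stable hCTR2 clone (RAMP-free); peptide dose-response 15 min 37° C in Tyrode pH 7.4 + 100 µM IBMX + 0.1% casein; lysis 10 min RT; AlphaScreen cAMP; 4PL fit.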

[2] = Solubility assessment (turbidity absorbance at 325 nm); format: physicochemical; conditions: stock 2 mg/ml diluted 1:1, ambient temperature (typically 25°C), n=1; for Solubility, Acetate buffer pH 4: 100 mM acetate buffer pH 4.0; for Solubility, Acetate buffer pH 5: 100 mM acetate buffer pH 5.0; for Solubility, Histidine buffer pH 6: 100 mM histidine buffer pH 6.0; for Solubility, Histidine buffer pH 7: 100 mM histidine buffer pH 7.0; for Solubility, Phosphate buffer pH 6: 100 mM phosphate buffer pH 6.0; for Solubility, Phosphate buffer pH 7: 100 mM phosphate buffer pH 7.0; for Solubility, Phosphate buffer pH 7.5: 100 mM phosphate buffer pH7.5
Summary of the method: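 Peptide stock (2 mg/ml, water pH 2.5) diluted 1:1 into 100 mM acetate (pH 4.0, 5.0), histidine (pH 6.0, 7.0) or phosphate (pH 6.0–7.5) buffer; absorbance at 325 nm read at about 25°C, n=1. A325 ≤ 0.02 taken as solubility ≥ 1 mg/ml.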

[3] = cAMP induction in COS7 cells expressing hCTR2, average of a minimum of 3 determinations, read-out: hCTR2 EC50

pEC50 [1, 3]	Solubility, Acetate buffer pH 4 [2]	Solubility, Acetate buffer pH 5 [2]	Solubility, Histidine buffer pH 6 [2]	Solubility, Histidine buffer pH 7 [2]	Solubility, Phosphate buffer pH 6 [2]	Solubility, Phosphate buffer pH 7 [2]	Solubility, Phosphate buffer pH 7.5 [2]	SMILES	pEC50 [1]
9.43	SS (SS indicates solubility ≥ 1mg/ml)	II (II indicates solubility ≤ 1 mg/ml)	II (II indicates solubility ≤ 1 mg/ml)	II (II indicates solubility ≤ 1 mg/ml)	II (II indicates solubility ≤ 1 mg/ml)	II (II indicates solubility ≤ 1 mg/ml)	II (II indicates solubility ≤ 1 mg/ml)	CC[C@H](C)[C@@H](C(=O)N[C@@H](CC(C)C)C(=O)N[C@@H](CO)C(=O)N[C@@H](CO)C(=O)N[C@H](C(=O)N[C@@H](CC(N)=O)C(=O)N[C@H](C(=O)NCC(=O)N[C@@H](CO)C(=O)N[C@@H](CC(N)=O)C(=O)N[C@H](C(=O)N(C)[C@@H](Cc1ccc(O)cc1)C(N)=O)[C@@H](C)O)C(C)C)[C@@H](C)O)N(C)C(=O)CN(C)C(=O)[C@H](Cc1ccccc1)NC(=O)[C@H](CC(N)=O)NC(=O)[C@H](CC(N)=O)NC(=O)[C@H](CO)NC(=O)[C@H](CO)NC(=O)[C@H](Cc1c[nH]cn1)NC(=O)[C@H](Cc1c[nH]cn1)NC(=O)[C@H](CC(C)C)NC(=O)[C@H](Cc1ccccc1)NC(=O)[C@H](CCC(=O)O)NC(=O)[C@H](C)NC(=O)[C@H](CC(C)C)NC(=O)[C@H](CCCNC(=N)N)NC(=O)[C@H](CCC(N)=O)NC(=O)[C@@H](NC(=O)[C@H](C)NC(=O)[C@@H]1CSSC[C@H](NC(=O)[C@H](CCCNC(=N)N)NC(=O)CC[C@H](NC(=O)CCCCCCCCCCCCCCCCCCC(=O)O)C(=O)O)C(=O)N[C@@H](CC(N)=O)C(=O)N[C@@H]([C@@H](C)O)C(=O)N[C@@H](C)C(=O)N[C@@H]([C@@H](C)O)C(=O)N1)[C@@H](C)O [Compound 62, [19CD]-isoGlu-RC()NTATC()ATQRLAEFLHHSSNNF-Gly(Me)-Ile(Me)-LSSTNVGSNT-Tyr(Me)-NH2] ({C20 diacid-γGlu}-RCNTATCATQRLAEFLHHSSNNF[Sar][NMeI]LSSTNVGSNT[NMeY]-NH2; disulfide 2-7)	–
9.40	SS (SS indicates solubility ≥ 1mg/ml)	II (II indicates solubility ≤ 1 mg/ml)	SS (SS indicates solubility ≥ 1mg/ml)	SS (SS indicates solubility ≥ 1mg/ml)	SS (SS indicates solubility ≥ 1mg/ml)	SS (SS indicates solubility ≥ 1mg/ml)	SS (SS indicates solubility ≥ 1mg/ml)	CC[C@H](C)[C@@H](C(=O)N[C@@H](CC(C)C)C(=O)N[C@@H](CO)C(=O)N[C@@H](CO)C(=O)N[C@H](C(=O)N[C@@H](CC(N)=O)C(=O)N[C@H](C(=O)NCC(=O)N[C@@H](CO)C(=O)N[C@@H](CC(N)=O)C(=O)N[C@H](C(=O)N1CCC[C@H]1C(N)=O)[C@@H](C)O)C(C)C)[C@@H](C)O)N(C)C(=O)CN(C)C(=O)[C@H](Cc1ccccc1)NC(=O)[C@H](CC(N)=O)NC(=O)[C@H](CC(N)=O)NC(=O)[C@H](CO)NC(=O)[C@H](CO)NC(=O)[C@H](Cc1c[nH]cn1)NC(=O)[C@H](Cc1c[nH]cn1)NC(=O)[C@H](CC(C)C)NC(=O)[C@H](Cc1ccccc1)NC(=O)[C@H](CCC(=O)O)NC(=O)[C@H](C)NC(=O)[C@H](CC(C)C)NC(=O)[C@H](CCCNC(=N)N)NC(=O)[C@H](CCC(N)=O)NC(=O)[C@@H](NC(=O)[C@H](C)NC(=O)[C@@H]1CSSC[C@H](NC(=O)[C@H](CCN)NC(=O)CC[C@H](NC(=O)CCCCCCCCCCCCCCCCCCC(=O)O)C(=O)O)C(=O)N[C@@H](CC(N)=O)C(=O)N[C@@H]([C@@H](C)O)C(=O)N[C@@H](C)C(=O)N[C@@H]([C@@H](C)O)C(=O)N1)[C@@H](C)O [Compound 64, [19CD]-isoGlu-Dab-C()NTATC()ATQRLAEFLHHSSNNF-Gly(Me)-Ile(Me)-LSSTNVGSNTP-NH2] ({C20 diacid-γGlu}-[Dab]CNTATCATQRLAEFLHHSSNNF[Sar][NMeI]LSSTNVGSNTP-NH2; disulfide 2-7)	–
9.96	SS (SS indicates solubility ≥ 1mg/ml)	SS (SS indicates solubility ≥ 1mg/ml)	SS (SS indicates solubility ≥ 1mg/ml)	SS (SS indicates solubility ≥ 1mg/ml)	SS (SS indicates solubility ≥ 1mg/ml)	SS (SS indicates solubility ≥ 1mg/ml)	SS (SS indicates solubility ≥ 1mg/ml)	CC[C@H](C)[C@@H](C(=O)N[C@@H](CC(C)C)C(=O)N[C@@H](CO)C(=O)N[C@@H](CO)C(=O)N[C@H](C(=O)N[C@@H](CC(N)=O)C(=O)N[C@H](C(=O)NCC(=O)N[C@@H](CO)C(=O)N[C@@H](CC(N)=O)C(=O)N[C@H](C(=O)N1CCC[C@H]1C(N)=O)[C@@H](C)O)C(C)C)[C@@H](C)O)N(C)C(=O)CN(C)C(=O)[C@H](Cc1ccccc1)NC(=O)[C@H](CC(N)=O)NC(=O)[C@H](CC(N)=O)NC(=O)[C@H](CO)NC(=O)[C@H](CO)NC(=O)[C@H](Cc1c[nH]cn1)NC(=O)[C@H](Cc1c[nH]cn1)NC(=O)[C@H](CC(C)C)NC(=O)[C@H](Cc1ccccc1)NC(=O)[C@H](CCC(=O)O)NC(=O)[C@H](C)NC(=O)[C@H](CC(C)C)NC(=O)[C@H](CCCNC(=N)N)NC(=O)[C@H](CCC(N)=O)NC(=O)[C@@H](NC(=O)[C@H](C)NC(=O)[C@@H]1CSSC[C@H](NC(=O)[C@H](CCCN)NC(=O)CC[C@H](NC(=O)CCCCCCCCCCCCCCCCCCC(=O)O)C(=O)O)C(=O)N[C@@H](CC(N)=O)C(=O)N[C@@H]([C@@H](C)O)C(=O)N[C@@H](C)C(=O)N[C@@H]([C@@H](C)O)C(=O)N1)[C@@H](C)O [Compound 66, [19CD]-isoGlu-Orn-C()NTATC()ATQRLAEFLHHSSNNF-Gly(Me)-Ile(Me)-LSSTNVGSNTP-NH2] ({C20 diacid-γGlu}-[Orn]CNTATCATQRLAEFLHHSSNNF[Sar][NMeI]LSSTNVGSNTP-NH2; disulfide 2-7)	–

SMILES	pEC50 [1, 3]	Solubility, Acetate buffer pH 4 [2]	Solubility, Acetate buffer pH 5 [2]	Solubility, Histidine buffer pH 6 [2]	Solubility, Histidine buffer pH 7 [2]	Solubility, Phosphate buffer pH 6 [2]	Solubility, Phosphate buffer pH 7 [2]	Solubility, Phosphate buffer pH 7.5 [2]	pEC50 [1]
CC[C@H](C)[C@@H](C(=O)N[C@@H](CC(C)C)C(=O)N[C@@H](CO)C(=O)N[C@@H](CO)C(=O)N[C@H](C(=O)N[C@@H](CC(N)=O)C(=O)N[C@H](C(=O)NCC(=O)N[C@@H](CO)C(=O)N[C@@H](CC(N)=O)C(=O)N[C@H](C(=O)N1CCC[C@H]1C(N)=O)[C@@H](C)O)C(C)C)[C@@H](C)O)N(C)C(=O)[C@H](C)NC(=O)CN(C)C(=O)[C@H](Cc1ccccc1)NC(=O)[C@H](CC(N)=O)NC(=O)[C@H](CC(N)=O)NC(=O)[C@H](CO)NC(=O)[C@H](CO)NC(=O)[C@H](Cc1c[nH]cn1)NC(=O)[C@H](Cc1c[nH]cn1)NC(=O)[C@H](CC(C)C)NC(=O)[C@H](Cc1ccccc1)NC(=O)[C@H](CCC(=O)O)NC(=O)[C@H](C)NC(=O)[C@H](CC(C)C)NC(=O)[C@H](CCCNC(=N)N)NC(=O)[C@H](CCC(N)=O)NC(=O)[C@@H](NC(=O)[C@H](C)NC(=O)[C@@H]1CSSC[C@H](NC(=O)[C@H](CCN)NC(=O)CC[C@H](NC(=O)CCCCCCCCCCCCCCCCCCC(=O)O)C(=O)O)C(=O)N[C@@H](CC(N)=O)C(=O)N[C@@H]([C@@H](C)O)C(=O)N[C@@H](C)C(=O)N[C@@H]([C@@H](C)O)C(=O)N1)[C@@H](C)O [Compound 63, [19CD]-isoGlu-Dab-C()NTATC()ATQRLAEFLHHSSNNF-Gly(Me)-A-Ile(Me)-LSSTNVGSNTP-NH2] ({C20 diacid-γGlu}-[Dab]CNTATCATQRLAEFLHHSSNNF[Sar]A[NMeI]LSSTNVGSNTP-NH2; disulfide 2-7)	–	SS (SS indicates solubility ≥ 1mg/ml)	II (II indicates solubility ≤ 1 mg/ml)	SS (SS indicates solubility ≥ 1mg/ml)	SS (SS indicates solubility ≥ 1mg/ml)	SS (SS indicates solubility ≥ 1mg/ml)	SS (SS indicates solubility ≥ 1mg/ml)	SS (SS indicates solubility ≥ 1mg/ml)	9.70
